Source: the NIST ThermoML archive (doi:10.1016/j.jct.2013.03.003)

Assay: osmotic coefficient (dimensionless); mn = molality of the nth substance listed, in mol/kg
Conditions: 298.15 K, Liquid, isopiestic method

[Br-].[K+] [potassium bromide] + O
Conditions | osmotic coefficient
m1 = 2.545 | 0.9434
m1 = 2.703 | 0.9473
m1 = 2.947 | 0.9544
m1 = 3.171 | 0.9579
m1 = 3.46 | 0.965
m1 = 3.778 | 0.9757
m1 = 4.026 | 0.9849
m1 = 4.214 | 0.9911
m1 = 4.694 | 1.0054
m1 = 5.41 | 1.032
